Test results published in US20220054496A1, “MODULATION OF TRF1 FOR BRAIN CANCER TREATMENT” (Fundación Del Sector Público Estatal Centro Nacional De …, priority 2018, published 2022).
“Also recorded” adds a separate entry of the source.

Experiments:
[1] = test system: TRF1; assay: Western blot of total TRF1 protein in U251 cells; assay type: cell-based, human; conditions: 10 μM, 24 h or 48 hr
Method: (§1) Nuclear protein extracts were obtained using Nuclear Cytosolic Fractionation Kit (Biovision) and protein concentration was determined using the Bio-Rad DC Protein Assay (Bio-Rad). Up to 15 μg of protein per extract were separated in SDS-polyacrylamide gels by electrophoresis. After protein transfer onto nitrocellulose membrane (Whatman), the membranes were incubated with the indicated antibodies. Antibody binding was detected after incubation with a secondary antibody coupled to horseradish peroxidase using chemiluminescence with ECL detection KIT (GE Healthcare)
Quantifications: Protein-band intensities were measured with ImageJ software and normalized against the loading control.
(§2) For in vitro studies, ETP-47228 ETP-47037 and ETP-50946 were dissolved in DMSO at a final concentration of 10 or 5 mM. Cells were treated at a concentration of 10 μM for 24 h or 48 hr.
(§3) To address whether these small molecules could represent a new therapeutic strategy for the treatment of GBM, the present inventors first tested the ability of the three independent TRF1 inhibitory molecules (ETP-47228, ETP-47037 and ETP-50946) to downregulate TRF1 protein levels in the U251 human GBM cell line.

[2] = test system: U251 cells; assay: Neurosphere formation assay in U251 cells; assay type: cell-based, human; conditions: U251 in NSC media; seven days; vs DMSO
Method: (§4) Spheres were dissociated into single cells and seeded at a density of 50, 100, 200 and 400 cells/well in a 96 well plate. Neurosphere number was assessed after 7 days. Pictures were taken using Nikon Eclipse Ti-U microscope and neurosphere diameter was measured using NIS Elements BR software.
Finally, the present inventors checked if the three chemical compounds had the ability to reduce sternness in these cells. They cultured U251 cells with NSC media in order to obtain a suspension culture enriched in stem cells. The inventors performed a sphere formation assay with these cells treated with ETP-47228, ETP-47037 and ETP-50946 or DMSO for seven days. […] Of note, all these effects recapitulated what the present inventors observed with Trf1 genetic downregulation (See 2.2).

[3] = test system: h543 GSCs; assay: Sphere formation assay in patient-derived h543 GSCs; assay type: cell-based, human; conditions: for sphere formation, dose-response: 7 days
Method: (§5) FIG. 48. […] (A) Dose-response curves of the h676 GSCs treated 7 days with the indicated compounds. (B) Dose-response curves of the h543 GSCs treated 7 days with the indicated compounds. Data are represented as mean±SD.
as §4
(§6) Given the promising results the present inventors obtained with the TRF1 chemical modulators in the U251 GBM cell line, the present inventors next set to address the effects of these compounds in two independent patient-derived primary GSCs (h543 and h676) cultures.
(§7) Next, the present inventors set to address whether the different compounds were able to block sphere formation in the h676 and h543 GSCs.

[4] = test system: TRF1; assay: TRF1 nuclear immunofluorescence (TRF1 foci) in U251 cells; assay type: cell-based, human; conditions: 10 μM, 24 h or 48 hr
Method: For immunofluorescence analyses, cells were plated in a proper density in cell culture μCLEAR plates (Greiner) and fixed in 4% formaldehyde in PBS. Cells were permeabilized with 0.25% Triton in PBS and blocked with 5% BSA in PBS. Tissue sections were fixed in 10% buffered formalin (Sigma) and embedded in paraffin. After deparaffinization and citrate antigen retrieval, sections were permeabilized with 0.5% Triton in PBS and blocked with 1% BSA and 10% Australian FBS ([…]) in PBS. The antibodies were applied overnight in antibody diluents with background reducing agents (Invitrogen).
Immunofluorescence images were obtained using a confocal ultraspectral microscope (Leica TCS-SP5) or the Opera High Content Screening (HCS) system (Perkin Elmer). Quantifications were performed with Definiens software.
as §2, §3

[5] = test system: h676 GSCs; assay: Sphere formation assay in patient-derived h676 GSCs; assay type: cell-based, human; conditions: for sphere formation, dose-response: 7 days
Method: as §5, §4, §6, §7

[6] = test system: TRF1; assay: Western blot of TRF1 protein levels in h676 GSCs; assay type: cell-based, human; conditions: 1 μM, 24 h
Method: FIG. 46. Screening of ETP-antitumoral library: Identification of TRF1 modulators in compounds approved by FDA or in clinical trials. (A) Drugs in ETP-antitumoral library distribution in Reactome Pathways. (B) Opera High ContentScreening system was used to identify compounds with the ability to inhibit TRF1, from representative images of confocal validation obtained from cells treated with DMSO (upper photograph of the right side of the panel and b) 1 μM of the tested compound, and determining the signal corresponding to TRF1 foci; TRF1 foci (green signal) can be appreciated clearly in the upper on the nuclear staining with DAPI (blue signal), but they have decreased in the lower photograph. (C) Representation of the inhibition of TRF1 levels by drugs belonging to different signaling pathways that modulate TRF1 at telomeres. Bar fillings vary depending on the signaling pathway. The results corresponding to three PI3K inhibitors inside the ETP-antitumoral library are represented by the three first bars from the right, validating the screening. (D) Structurally diverse MEK inhibitors tested in the chemical biology validation of the MEK/ERK pathway as modulator of TRF1 levels. (E) Structurally diverse ERK inhibitors tested in the chemical biology validation of the MEK/ERK pathway as modulator of TRF1 levels. (F) Inhibition of TRF1 levels by the MEK and ERK inhibitors represented in (D) and (E), respectively, measured by immunofluorescence. (G) Structurally diverse HSP90 inhibitors tested in the chemical biology validation of HSP90 pathway as modulator of TRF1 levels. (H) Inhibition of TRF1 levels by the HSP90 inhibitors represented in (G), measured by immunofluorescence. (I) Structurally diverse tubulin agent tested in the chemical biology validation of tubulin agents as modulator of TRF1 levels. (J) Inhibition of TRF1 levels by the tubulin agents represented in (I), measured by immunofluorescence. (K) Western Blot (up) and quantification (down) of TRF1 protein levels in the h676 GSCs after 24 h treatment with 1 μM of the indicated compounds. Data are represented as mean±SD. n represents biological replicates. Statistical analysis: unpaired t-test.
as §1
The present inventors treated GSCs for 24 h at 1 μM concentration and assessed TRF1 protein levels by western blot.

[7] = test system: p-AKT; assay: p-AKT activation (p-AKT/AKT western blot) in h676 GSCs; assay type: cell-based, human; conditions: 1 μM, 24 h
Method: FIG. 47. […] Western Blot (up) and quantification (down) of p-AKT/AKT ratio in the h676 GSCs after 24 h treatment with 1 μM of the indicated compounds. Data are represented as mean±SD. n represents biological replicates.
The present inventors have confirmed the modulation of TRF1 through the PI3K-AKT pathway (Méndez-Pertuz et al., 2017). In order to check whether the novel compounds act independently of this pathway, the present inventors treated the cells for 24 h at 1 μM concentration and checked p-AKT activation. They also included in this analysis some compounds previously identified by the same research group: namely ETP-47037 (PI3Ki) (García-Beccaria et al., 2015), and ETP-50946 (FIG. 47, right graph of the lower part).

[8] = test system: TRF1; assay: Screening of ETP-antitumoral library / phenotypic assay of TRF1 levels in CHA-9.3 cells; assay type: cell-based, mouse; conditions: for inhibition of TRF1 protein levels / TRF1 modulation in the screening: CHA-9.3 mouse lung cancer cell line, 1 μM, 24 h; for modulation of TRF1 levels by tubulin agents (validation): immunofluorescence
Method: All of them were tested at 1 μM during 24 h in the phenotypic assay that measure TRF1 levels.

[9] = test system: h676 GSCs; assay: Drug combination studies (sphere number and diameter) in h676 GSCs; assay type: cell-based, human; conditions: number and diameter of spheres, 7 days
Source text: FIG. 51. […] (A-F) Quantification of number of spheres (up) and diameter (down) in h676 GSCs treated with the indicated compounds. Representative image of the spheres (left). Data are represented as mean±SD (up) or mean±SD (down), n represents biological replicates (up) or number of spheres (down). Statistical analysis: unpaired t-test.
Using this concentration as a reference point, the present inventors designed a combinatorial matrix using different concentrations of the compounds (e.g. 2×GI50, GI50 and ½ GI50) to study all the possible combinations. Combination index is calculated to establish if the combination is synergistic, additive or antagonistic (FIG. 50A).

NC(Cc1ccccc1)c1csc(Nc2ncccn2)n1 (racemic) [ETP-50946]
total TRF1 protein levels (western blot) [1]: effectively reduced
diameter of neurospheres [2]: strong reduction
number of neurospheres [2]: strong reduction
diameter of spheres ([3]; vs untreated controls): significant drastic reduction
number of spheres ([3]; vs untreated controls): significant drastic reduction
TRF1 foci (immunofluorescence) [4]: effectively reduced
diameter of spheres ([5]; vs untreated controls): significant drastic reduction
number of spheres ([5]; vs untreated controls): significant drastic reduction

COc1cc(Nc2ncc3c(n2)-c2ccc(Cl)cc2C(c2c(F)cccc2OC)=NC3)ccc1C(=O)O [Alisertib]
degree of TRF1 inhibition (TRF1 protein levels by western blot) [6]: no ability to downregulate TRF1
dependence on p-AKT (p-AKT activation) [7]: act independently of p-AKT
inhibition of TRF1 protein levels / TRF1 modulation in the screening [8]: inhibit TRF1 protein levels; also recorded: novel TRF1 modulators

CC(=O)O[C@@]12CO[C@@H]1C[C@H](O)[C@@]1(C)C(=O)[C@H](O)C3=C(C)[C@@H](OC(=O)[C@H](O)[C@@H](NC(=O)OC(C)(C)C)c4ccccc4)C[C@@](O)([C@@H](OC(=O)c4ccccc4)[C@H]21)C3(C)C [Docetaxel]
synergic effect in combination with PI3Ki (ETP-47037) [9]: significant synergic effect
degree of TRF1 inhibition (TRF1 protein levels by western blot) [6]: medium TRF1 modulators
dependence on p-AKT (p-AKT activation) [7]: act independently of p-AKT
sphere formation, dose-response [3]: most potent compounds
inhibition of TRF1 protein levels / TRF1 modulation in the screening [8]: inhibit TRF1 protein levels; also recorded: novel TRF1 modulators
modulation of TRF1 levels by tubulin agents (validation) [8]: more strongly
sphere formation, dose-response [5]: most potent compounds

CN1CC[C@H](c2c(O)cc(O)c3c(=O)cc(-c4ccccc4Cl)oc23)[C@H](O)C1 [Flavopiridol]
degree of TRF1 inhibition (TRF1 protein levels by western blot) [6]: medium TRF1 modulators
dependence on p-AKT (p-AKT activation) [7]: act independently of p-AKT
inhibition of TRF1 protein levels / TRF1 modulation in the screening [8]: inhibit TRF1 protein levels; also recorded: novel TRF1 modulators

C[C@@H](Oc1cc(-n2cnc3ccc(CN4CCN(C)CC4)cc32)sc1C(N)=O)c1ccccc1C(F)(F)F [GSK461364]
degree of TRF1 inhibition (TRF1 protein levels by western blot) [6]: no ability to downregulate TRF1
dependence on p-AKT (p-AKT activation) [7]: p-AKT dependent
inhibition of TRF1 protein levels / TRF1 modulation in the screening [8]: inhibit TRF1 protein levels; also recorded: novel TRF1 modulators

Nc1ccn([C@@H]2O[C@H](CO)[C@@H](O)C2(F)F)c(=O)n1 [Gemcitabine]
synergic effect in combination with PI3Ki (ETP-47037) [9]: significant synergic effect
degree of TRF1 inhibition (TRF1 protein levels by western blot) [6]: medium TRF1 modulators
dependence on p-AKT (p-AKT activation) [7]: act independently of p-AKT
sphere formation, dose-response [3]: most potent compounds
inhibition of TRF1 protein levels / TRF1 modulation in the screening [8]: inhibit TRF1 protein levels; also recorded: novel TRF1 modulators
sphere formation, dose-response [5]: most potent compounds

COc1ccc(-c2ccc3c(N4CCOCC4)nc(N4C[C@@H](C)O[C@@H](C)C4)nc3n2)cc1CO [KU-0063794]
degree of TRF1 inhibition (TRF1 protein levels by western blot) [6]: medium TRF1 modulators
dependence on p-AKT (p-AKT activation) [7]: p-AKT dependent
inhibition of TRF1 protein levels / TRF1 modulation in the screening [8]: inhibit TRF1 protein levels; also recorded: novel TRF1 modulators

O=C(Nc1ccc2[nH]nc(-c3ccncc3)c2c1)[C@@H]1CCN(CC(=O)N2CCN(c3ccc(-c4ncccn4)cc3)CC2)C1 [SCH772984]
synergic effect in combination with PI3Ki (ETP-47037) [9]: significant synergic effect
degree of TRF1 inhibition (TRF1 protein levels by western blot) [6]: potent TRF1 modulators
dependence on p-AKT (p-AKT activation) [7]: act independently of p-AKT
inhibition of TRF1 protein levels / TRF1 modulation in the screening [8]: novel TRF1 modulators
inhibition of TRF1 protein levels / TRF1 modulation in the screening ([8]; listed as ERKi): inhibit TRF1 protein levels

CC(=O)O[C@H]1C(=O)[C@@]2(C)[C@H]([C@H](OC(=O)c3ccccc3)[C@]3(O)C[C@H](OC(=O)[C@H](O)[C@@H](NC(=O)c4ccccc4)c4ccccc4)C(C)=C1C3(C)C)[C@]1(OC(C)=O)CO[C@@H]1C[C@@H]2O [paclitaxel]
modulation of TRF1 levels by tubulin agents (validation) [8]: more strongly
